Values of other authors as cited in patent publication US20190055521A1, “Methods Of Propagating Rhinovirus C In Previously Unsusceptible Cell Lines” (Wisconsin Alumni Research Foundation, priority 2014, published 2019).
Read-outs that look alike come from different tables or passages of the source.

Assays:
[1] = tested on: RV-A; settings: unmodified HeLa cells; previously documented
[2] = tested on: RV-B; settings: unmodified HeLa cells; previously documented
[3] = tested on: RV-A; settings: unmodified HeLa cells; drug added to cells before infection; previously documented
[4] = tested on: RV-B; settings: unmodified HeLa cells; drug added to cells before infection; previously documented

Row | Compound | inhibition of RV-A [1] | inhibition of RV-B [2] | inhibition of RV-A [3] | inhibition of RV-B [4]
1 | Cc1cc(CCCOc2c(C)cc(-c3noc(C(F)(F)F)n3)cc2C)on1 [Pleconaril] | inhibition | inhibition | – | –
2 | CCOC(=O)/C=C/[C@H](C[C@@H]1CCNC1=O)NC(=O)[C@@H](CC(=O)[C@@H](NC(=O)c1cc(C)on1)C(C)C)Cc1ccc(F)cc1 [Rupintrivir] | – | – | inhibition | inhibition
